Entries after “also recorded” stand apart in the source; their conditions may differ.
Key:
[1] = test system: SK-RC-52 xenografts; test: Biodistribution of [111In]XYIMSR-01 and [177Lu]XYIMSR-01; type: in vivo, mice
Experimental: (§1) Cell Lines and Mouse Models. Animal experiments were performed in accordance with protocols approved by the Johns Hopkins Animal Care and Use Committee (ACUC). Six-week-old female NOD/SCID mice were purchased from the Animal Resource Core of the Sidney Kimmel Comprehensive Cancer Center of Johns Hopkins and were subcutaneously injected in the lower left flank or upper right flank with 1×10^6 SK-RC-52 cells in RPMI 1640 GlutaMAX™ media (Life Technologies, Frederick, Md.) supplemented with 1% fetal bovine serum (FBS). Mice were monitored for tumor size and used for SPECT/CT imaging when the size of the tumor reached 100 mm^3.
Biodistribution of [^111In]XYIMSR-01 and [^177Lu]XYIMSR-01. Mice bearing SK-RC-52 xenografts at lower left flank were injected intravenously with 740 kBq (20 μCi) of [^111In]XYIMSR-01, or [^177Lu]XYIMSR-01 in 200 μL of PBS. For competitive blocking, same tumor bearing mice were injected with 740 kBq (20 μCi) of [^111In]XYIMSR-01 and 200 nmole of 1 in 200 μL of PBS. At 1 h, 4 h, 8 h, 24 h and 48 h post-injection, mice were sacrificed by cervical dislocation and the blood was immediately collected by cardiac puncture. Heart, lungs, pancreas, spleen, fat, brain, muscle, small intestines, liver, stomach, kidney, urinary bladder, and tumor were collected. Each organ was weighed and the tissue radioactivity was measured with an automated gamma counter (1282 Compugamma CS, Pharmacia/LKBNuclear, Inc., Mt. Waverly, Vic. Australia). The percentage of injected dose per gram of tissue (% ID/g) was calculated by comparison with samples of a standard dilution of the initial dose. All measurements were corrected for radioactive decay.
Data were expressed as mean±standard deviation (SD). Prism software (GraphPAD, San Diego, Calif.) was used to determine statistical significance. Statistical significance was calculated using a paired t test. P-values […] were considered significant.

[2] = target: CAIX (Homo sapiens, UniProt Q16790); test: In vitro uptake of [177Lu]XYIMSR-01; type: cell-based; set-up: host or cells: ccRCC tumours in patients
[3] = test system: SK-RC-52 xenografts; test: Radio-therapy of [177Lu]XYIMSR-01, tumor growth; type: in vivo, mice; details: 11.1 MBq (300 μCi) and 18.5 MBq (500 μCi) i.v., n=4
Experimental: as §1
Radio-therapy of [^177Lu]XYIMSR-01. Mice bearing SK-RC-52 xenografts at lower left flank were injected intravenously with PBS, 11.1 MBq (300 μCi) and 18.5 MBq (500 μCi) of [^177Lu]XYIMSR-01 in 200 μL of PBS (n=4). Size of the tumors was measured twice a week after the injection. […] The P-values were 0.042 and 0.031 for the 11.1 and […] doses, respectively.

[4] = 24 hr + Block (200 nmole of 1 co-injected)
[5] = 48 hr + Block (200 nmole of 1 co-injected)

## CC(CCC(=O)N[C@@H](CC(=O)N[C@@H](CC(=O)N[C@@H](CCCCn1cc(CCCC(=O)Nc2nnc(S(N)(=O)=O)s2)nn1)C(=O)NCCOCCOCCNC(=O)CN1CCN(CC(=O)[O-])CCN(CC(=O)[O-])CCN(CC(=O)[O-])CC1)C(=O)O)C(=O)O)(c1ccc(O)cc1)c1ccc(O)cc1.[177Lu+3] [[^177Lu]XYIMSR-01]
[1]; [4]
  Biodistribution: Pancreas: 0.05 ± 0.03 % ID/g
  Biodistribution: Small intestine: 0.18 ± 0.07 % ID/g
  Biodistribution: Spleen: 0.38 ± 0.32 % ID/g
  Biodistribution: Stomach: 0.21 ± 0.07 % ID/g
  Biodistribution: Tumor: 1.70 ± 0.79 % ID/g
  Tumor/Blood ratio: 42.0 ± 20.9
  Tumor/Kidney ratio: 1.4 ± 0.6
  Tumor/Muscle ratio: 58.6 ± 25.3
[1]; 24 hr post-injection
  Biodistribution: Bladder: 1.29 ± 1.10 % ID/g
  Biodistribution: Blood: 0.02 ± 0.01 % ID/g
  Biodistribution: Brain: 0.28 ± 0.10 % ID/g
  Biodistribution: Fat: 0.05 ± 0.04 % ID/g
  Biodistribution: Heart: 0.28 ± 0.14 % ID/g
  Biodistribution: Kidney: 3.11 ± 1.59 % ID/g
  Biodistribution: Liver: 0.47 ± 0.21 % ID/g
  Biodistribution: Lung: 1.48 ± 0.59 % ID/g
  Biodistribution: Muscle: 0.10 ± 0.05 % ID/g
  Biodistribution: Pancreas: 0.16 ± 0.07 % ID/g
  Biodistribution: Small intestine: 0.96 ± 0.32 % ID/g
  Biodistribution: Spleen: 0.20 ± 0.07 % ID/g
  Biodistribution: Stomach: 1.02 ± 0.56 % ID/g
  Biodistribution: Tumor: 12.51 ± 3.02 % ID/g
  Tumor/Blood ratio: 607.4±200.7
  Tumor/Kidney ratio: 4.5±1.4
  Tumor/Muscle ratio: 128.4±25.4
[1]; [5]
  Biodistribution: Bladder: 0.28 ± 0.09 % ID/g
  Biodistribution: Blood: 0.04 ± 0.07 % ID/g
  Biodistribution: Brain: 0.02 ± 0.00 % ID/g
  Biodistribution: Fat: 0.02 ± 0.01 % ID/g
  Biodistribution: Heart: 0.04 ± 0.01 % ID/g
  Biodistribution: Kidney: 0.39 ± 0.05 % ID/g
  Biodistribution: Liver: 0.23 ± 0.04 % ID/g
  Biodistribution: Lung: 0.18 ± 0.05 % ID/g
  Biodistribution: Muscle: 0.01 ± 0.00 % ID/g
  Biodistribution: Pancreas: 0.02 ± 0.00 % ID/g
  Biodistribution: Small intestine: 0.05 ± 0.01 % ID/g
  Biodistribution: Spleen: 0.15 ± 0.06 % ID/g
  Biodistribution: Stomach: 0.09 ± 0.02 % ID/g
  Biodistribution: Tumor: 0.65 ± 0.10 % ID/g
  Tumor/Blood ratio: 42.7 ± 23.7
  Tumor/Kidney ratio: 1.7 ± 0.3
  Tumor/Muscle ratio: 62.5 ± 34.5
[1]; 48 hr post-injection
  Biodistribution: Bladder: 0.20 ± 0.01 % ID/g
  Biodistribution: Blood: 0.04 ± 0.01 % ID/g
  Biodistribution: Brain: 0.17 ± 0.03 % ID/g
  Biodistribution: Fat: 0.03 ± 0.01 % ID/g
  Biodistribution: Heart: 0.12 ± 0.17 % ID/g
  Biodistribution: Kidney: 0.76 ± 0.11 % ID/g
  Biodistribution: Liver: 0.19 ± 0.03 % ID/g
  Biodistribution: Lung: 0.90 ± 0.05 % ID/g
  Biodistribution: Muscle: 0.04 ± 0.01 % ID/g
  Biodistribution: Pancreas: 0.06 ± 0.01 % ID/g
  Biodistribution: Small intestine: 0.20 ± 0.05 % ID/g
  Biodistribution: Spleen: 0.13 ± 0.04 % ID/g
  Biodistribution: Stomach: 0.35 ± 0.04 % ID/g
  Biodistribution: Tumor: 5.82 ± 2.14 % ID/g
  Tumor/Blood ratio: 200.2 ± 101.7
  Tumor/Kidney ratio: 7.1 ± 1.8
  Tumor/Muscle ratio: 141.5 ± 71.7
[2]
  uptake in vitro: CAIX specific uptake in vitro
[3]
  tumor growth compared with control non-treated mice: Delays in tumor growth; also recorded: significant therapeutic effect in controlling tumor growth

From patent publication US20190192699A1, “NUCLEAR IMAGING AND RADIOTHERAPEUTICS AGENTS TARGETING CARBONIC ANHYDRASE IX AND USES THEREOF” (THE JOHNS HOPKINS UNIVERSITY, priority 2016, published 2019)
